In ChEMBL document CHEMBL1201862, “PubChem BioAssay data set” (2004):
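96-well plates; 48 h exposure; 5 concentrations. Endpoints by linear interpolation between flanking doses. Not reached: highest tested concentration assigned. GI50 marks 50% less growth.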 Calls of active or inactive are those of the source. Rule as the data show it: active = GI50 up to about 1.1 µM and inactive = higher.

Assays:
Test in all cases: inhibition of tumour cell growth, NCI panel, 48 h
[1] = tested on: SK-OV-3
[2] = tested on: DLD-1
[3] = tested on: K562
[4] = tested on: SNB-19
[5] = tested on: XF498
[6] = tested on: U-251
[7] = tested on: NCI-H460
[8] = tested on: M14
[9] = tested on: SF-539
[10] = tested on: CCRF-CEM
[11] = tested on: HCT-15
[12] = tested on: RPMI-8226
[13] = tested on: COLO 205
[14] = tested on: UO-31
[15] = tested on: SW-620
[16] = tested on: NCI-H522
[17] = tested on: RXF 393
[18] = tested on: A549
[19] = tested on: LOX IMVI
[20] = tested on: HOP-18
[21] = tested on: UACC-257
[22] = tested on: SN12C
[23] = tested on: Malme-3M
[24] = tested on: M19-MEL
[25] = tested on: DMS-273
[26] = tested on: EKVX
[27] = tested on: ACHN
[28] = tested on: OVCAR-8
[29] = tested on: SNB-75
[30] = tested on: KM12
[31] = tested on: UACC-62
[32] = tested on: HL-60
[33] = tested on: HCT-116
[34] = tested on: HT-29
[35] = tested on: DMS-114
[36] = tested on: NCI-H23
[37] = tested on: SK-MEL-28
[38] = tested on: NCI-H226
[39] = tested on: TK-10
[40] = tested on: MOLT-4
[41] = tested on: HOP-62
[42] = tested on: SF-295
[43] = tested on: IGROV-1
[44] = tested on: 786-0
[45] = tested on: OVCAR-3
[46] = tested on: SNB-78
[47] = tested on: LXFL 529
[48] = tested on: SK-MEL-2
[49] = tested on: A498
[50] = tested on: SF-268
[51] = tested on: HCC 2998
[52] = tested on: KM-20L2
[53] = tested on: SK-MEL-5
[54] = tested on: OVCAR-4
[55] = tested on: HOP-92
[56] = tested on: OVCAR-5

Nc1nc2c(c(=O)[nH]1)NC(CO)CN2 (stereo unspecified)
GI50 [1]: > 100 µM (inactive)
GI50 [2]: > 100 µM (inactive)
GI50 [3]: 51.3 µM (inactive)
GI50 [4]: > 100 µM (inactive)
GI50 [5]: 84.9 µM (inactive)
GI50 [6]: > 100 µM (inactive)
GI50 [7]: > 100 µM (inactive)
GI50 [8]: > 100 µM (inactive)
GI50 [9]: > 100 µM (inactive)
GI50 [10]: 29.9 µM (inactive)
GI50 [11]: > 100 µM
GI50 [12]: > 100 µM (inactive)
GI50 [13]: > 100 µM (inactive)
GI50 [14]: > 100 µM (inactive)
GI50 [15]: 37.9 µM (inactive)
GI50 [16]: > 100 µM (inactive)
GI50 [17]: > 100 µM (inactive)
GI50 [18]: > 100 µM (inactive)
GI50 [19]: 19.2 µM (inactive)
GI50 [20]: > 100 µM (inactive)
GI50 [21]: 24.3 µM (inactive)
GI50 [22]: > 100 µM (inactive)
GI50 [23]: > 100 µM (inactive)
GI50 [24]: 63.2 µM (inactive)
GI50 [25]: > 100 µM (inactive)
GI50 [26]: > 100 µM (inactive)
GI50 [27]: 79.4 µM (inactive)
GI50 [28]: 71 µM (inactive)
GI50 [29]: > 100 µM (inactive)
GI50 [30]: > 100 µM (inactive)
GI50 [31]: 84.7 µM (inactive)
GI50 [32]: > 100 µM (inactive)
GI50 [33]: 32.7 µM (inactive)
GI50 [34]: 44.2 µM (inactive)
GI50 [35]: 66.8 µM (inactive)
GI50 [36]: > 100 µM (inactive)
GI50 [37]: > 100 µM (inactive)
GI50 [38]: > 100 µM (inactive)
GI50 [39]: > 100 µM (inactive)
GI50 [40]: 37.1 µM (inactive)
GI50 [41]: > 100 µM (inactive)
GI50 [42]: 89.5 µM (inactive)
GI50 [43]: > 100 µM (inactive)
GI50 [44]: > 100 µM (inactive)
GI50 [45]: > 100 µM (inactive)

CCOC(=O)C1=C(C)C2C3C(=O)NC(=O)C3C1(C)C1C(=O)NC(=O)C21 (stereo unspecified)
GI50 [46]: > 100 µM (inactive)
GI50 [47]: > 100 µM (inactive)
GI50 [1]: > 100 µM (inactive)
GI50 [2]: > 100 µM (inactive)
GI50 [48]: > 100 µM (inactive)
GI50 [3]: > 100 µM (inactive)
GI50 [4]: > 100 µM (inactive)
GI50 [49]: > 100 µM (inactive)
GI50 [6]: > 100 µM (inactive)
GI50 [50]: > 100 µM (inactive)
GI50 [51]: > 100 µM (inactive)
GI50 [7]: > 100 µM (inactive)
GI50 [52]: > 100 µM (inactive)
GI50 [8]: > 100 µM (inactive)
GI50 [9]: > 100 µM (inactive)
GI50 [10]: > 100 µM (inactive)
GI50 [11]: > 100 µM
GI50 [12]: > 100 µM (inactive)
GI50 [13]: > 100 µM (inactive)
GI50 [14]: > 100 µM (inactive)
GI50 [15]: > 100 µM (inactive)
GI50 [17]: > 100 µM (inactive)
GI50 [18]: > 100 µM (inactive)
GI50 [19]: > 100 µM (inactive)
GI50 [53]: > 100 µM (inactive)
GI50 [20]: 3.49 µM (inactive)
GI50 [21]: > 100 µM (inactive)
GI50 [22]: > 100 µM (inactive)
GI50 [23]: > 100 µM (inactive)
GI50 [54]: > 100 µM (inactive)
GI50 [24]: > 100 µM (inactive)
GI50 [25]: > 100 µM (inactive)
GI50 [26]: > 100 µM (inactive)
GI50 [27]: > 100 µM (inactive)
GI50 [28]: > 100 µM (inactive)
GI50 [29]: > 100 µM (inactive)
GI50 [30]: > 100 µM (inactive)
GI50 [31]: > 100 µM (inactive)
GI50 [32]: > 100 µM (inactive)
GI50 [33]: > 100 µM (inactive)
GI50 [34]: > 100 µM (inactive)
GI50 [35]: > 100 µM (inactive)
GI50 [36]: > 100 µM (inactive)
GI50 [37]: > 100 µM (inactive)
GI50 [38]: < 0.01 µM (active)
GI50 [39]: > 100 µM (inactive)
GI50 [40]: > 100 µM (inactive)
GI50 [41]: > 100 µM (inactive)
GI50 [55]: > 100 µM (inactive)
GI50 [42]: > 100 µM (inactive)
GI50 [43]: > 100 µM (inactive)
GI50 [44]: > 100 µM (inactive)
GI50 [45]: 59.7 µM (inactive)

COc1cccc(NC(=O)CC(=O)N2N=C(n3ccc4ccccc43)CC2c2ccccc2)c1 (stereo unspecified)
GI50 [46]: > 100 µM (inactive)
GI50 [47]: > 100 µM (inactive)
GI50 [1]: > 100 µM (inactive)
GI50 [2]: > 100 µM (inactive)
GI50 [48]: > 100 µM (inactive)
GI50 [3]: > 100 µM (inactive)
GI50 [4]: > 100 µM (inactive)
GI50 [49]: > 100 µM (inactive)
GI50 [6]: > 100 µM (inactive)
GI50 [50]: > 100 µM (inactive)
GI50 [51]: > 100 µM (inactive)
GI50 [7]: > 100 µM (inactive)
GI50 [52]: > 100 µM (inactive)
GI50 [8]: > 100 µM (inactive)
GI50 [9]: > 100 µM (inactive)
GI50 [10]: > 100 µM (inactive)
GI50 [11]: > 100 µM
GI50 [12]: > 100 µM (inactive)
GI50 [13]: > 100 µM (inactive)
GI50 [14]: > 100 µM (inactive)
GI50 [15]: > 100 µM (inactive)
GI50 [16]: > 100 µM (inactive)
GI50 [17]: > 100 µM (inactive)
GI50 [18]: > 100 µM (inactive)
GI50 [19]: > 100 µM (inactive)
GI50 [20]: > 100 µM (inactive)
GI50 [21]: > 100 µM (inactive)
GI50 [22]: > 100 µM (inactive)
GI50 [56]: > 100 µM (inactive)
GI50 [23]: > 100 µM (inactive)
GI50 [54]: > 100 µM (inactive)
GI50 [24]: > 100 µM (inactive)
GI50 [25]: > 100 µM (inactive)
GI50 [26]: > 100 µM (inactive)
GI50 [27]: > 100 µM (inactive)
GI50 [28]: > 100 µM (inactive)
GI50 [29]: 71.3 µM (inactive)
GI50 [30]: > 100 µM (inactive)
GI50 [31]: > 100 µM (inactive)
GI50 [32]: > 100 µM (inactive)
GI50 [33]: > 100 µM (inactive)
GI50 [34]: > 100 µM (inactive)
GI50 [35]: > 100 µM (inactive)
GI50 [36]: > 100 µM (inactive)
GI50 [37]: > 100 µM (inactive)
GI50 [39]: > 100 µM (inactive)
GI50 [40]: > 100 µM (inactive)
GI50 [41]: > 100 µM (inactive)
GI50 [55]: 55.6 µM (inactive)
GI50 [42]: > 100 µM (inactive)
GI50 [43]: > 100 µM (inactive)
GI50 [44]: > 100 µM (inactive)
GI50 [45]: > 100 µM (inactive)
